Measurements reported in the supplement of paper PMC8612539.
≈ marks a conversion by molar mass, not a printed value.

Test system: Histophilus somni
Assay: minimum inhibitory concentration (MIC)
Procedure: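 Broth microdilution MIC (Sensititre BOPO7F bovine plate, CLSI methods) of 19 antimicrobials against field isolates of P. multocida, M. haemolytica, H. somni (deep nasopharyngeal swabs) and E. coli, Enterococcus spp. (rectal swabs) from weaned dairy heifers. Incubation 16-24 h at 35 C. MIC is the lowest concentration preventing visible growth. Values with <= or > lie at the tested range limits. Trimethoprim-sulfamethoxazole is given as the trimethoprim component of a 1:19 mixture.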

CC[C@H]1OC(=O)C[C@@H](O)[C@H](C)[C@@H](O[C@@H]2O[C@H](C)[C@@H](O[C@H]3C[C@@](C)(O)[C@@H](O)[C@H](C)O3)[C@H](N(C)C)[C@H]2O)[C@@H](CC=O)C[C@@H](C)C(=O)/C=C/C(C)=C/[C@@H]1CO[C@@H]1O[C@H](C)[C@@H](O)[C@@H](OC)[C@H]1OC [Tylosin]
Conditions | minimum inhibitory concentration [µg/mL]
isolate (source animal id): 3 | 8 (≈ 8.73 µM)
isolate (source animal id): 4 | 8 (≈ 8.73 µM)
isolate (source animal id): 7 | 8 (≈ 8.73 µM)
isolate (source animal id): 14 | 8 (≈ 8.73 µM)
isolate (source animal id): 15 | 8 (≈ 8.73 µM)
isolate (source animal id): 17 | 8 (≈ 8.73 µM)
isolate (source animal id): 18 | 8 (≈ 8.73 µM)
isolate (source animal id): 20 | 8 (≈ 8.73 µM)
isolate (source animal id): 23 | 2 (≈ 2.18 µM)
isolate (source animal id): 45 | 16 (≈ 17.5 µM)
isolate (source animal id): 53 | 16 (≈ 17.5 µM)
isolate (source animal id): 83 | 4 (≈ 4.37 µM)
isolate (source animal id): 88 | 8 (≈ 8.73 µM)
isolate (source animal id): 92 | 8 (≈ 8.73 µM)
isolate (source animal id): 93 | 8 (≈ 8.73 µM)
isolate (source animal id): 99 | 4 (≈ 4.37 µM)
isolate (source animal id): 100 | 8 (≈ 8.73 µM)
isolate (source animal id): 105 | 4 (≈ 4.37 µM)
isolate (source animal id): 107 | 8 (≈ 8.73 µM)
isolate (source animal id): 108 | 4 (≈ 4.37 µM)
isolate (source animal id): 109 | 8 (≈ 8.73 µM)
isolate (source animal id): 110 | 8 (≈ 8.73 µM)
isolate (source animal id): 117 | 4 (≈ 4.37 µM)
isolate (source animal id): 121 | 8 (≈ 8.73 µM)
isolate (source animal id): 123 | 8 (≈ 8.73 µM)
isolate (source animal id): 124 | 8 (≈ 8.73 µM)
isolate (source animal id): 127 | 8 (≈ 8.73 µM)
isolate (source animal id): 128 | 8 (≈ 8.73 µM)
isolate (source animal id): 130 | 2 (≈ 2.18 µM)
isolate (source animal id): 132 | 8 (≈ 8.73 µM)
isolate (source animal id): 135 | 8 (≈ 8.73 µM)
isolate (source animal id): 140 | 8 (≈ 8.73 µM)
isolate (source animal id): 141 | 4 (≈ 4.37 µM)
isolate (source animal id): 142 | > 32
isolate (source animal id): 144 | 8 (≈ 8.73 µM)
isolate (source animal id): 146 | 4 (≈ 4.37 µM)
isolate (source animal id): 147 | > 32
isolate (source animal id): 151 | 8 (≈ 8.73 µM)
isolate (source animal id): 153 | 16 (≈ 17.5 µM)
isolate (source animal id): 154 | > 32
isolate (source animal id): 156 | > 32
isolate (source animal id): 157 | 16 (≈ 17.5 µM)
isolate (source animal id): 176 | 32 (≈ 34.9 µM)
isolate (source animal id): 183 | 16 (≈ 17.5 µM)
isolate (source animal id): 186 | 32 (≈ 34.9 µM)
isolate (source animal id): 196 | 8 (≈ 8.73 µM)
isolate (source animal id): 198 | 8 (≈ 8.73 µM)
isolate (source animal id): 200 | 8 (≈ 8.73 µM)
isolate (source animal id): 206 | 8 (≈ 8.73 µM)
isolate (source animal id): 208 | 16 (≈ 17.5 µM)
isolate (source animal id): 210 | 8 (≈ 8.73 µM)
isolate (source animal id): 212 | 4 (≈ 4.37 µM)
isolate (source animal id): 215 | 8 (≈ 8.73 µM)
isolate (source animal id): 216 | 16 (≈ 17.5 µM)
isolate (source animal id): 218 | 8 (≈ 8.73 µM)
isolate (source animal id): 219 | 8 (≈ 8.73 µM)
isolate (source animal id): 224 | 8 (≈ 8.73 µM)
isolate (source animal id): 228 | 16 (≈ 17.5 µM)
isolate (source animal id): 230 | 32 (≈ 34.9 µM)
isolate (source animal id): 233 | 16 (≈ 17.5 µM)
isolate (source animal id): 238 | 2 (≈ 2.18 µM)
isolate (source animal id): 239 | 16 (≈ 17.5 µM)
isolate (source animal id): 241 | 16 (≈ 17.5 µM)
isolate (source animal id): 242 | 16 (≈ 17.5 µM)
isolate (source animal id): 243 | 16 (≈ 17.5 µM)
isolate (source animal id): 245 | 16 (≈ 17.5 µM)
isolate (source animal id): 246 | 8 (≈ 8.73 µM)
isolate (source animal id): 247 | 16 (≈ 17.5 µM)
isolate (source animal id): 248 | 4 (≈ 4.37 µM)
isolate (source animal id): 250 | 16 (≈ 17.5 µM)
isolate (source animal id): 251 | 32 (≈ 34.9 µM)
isolate (source animal id): 252 | 16 (≈ 17.5 µM)
isolate (source animal id): 254 | 16 (≈ 17.5 µM)
isolate (source animal id): 258 | 8 (≈ 8.73 µM)
isolate (source animal id): 259 | 8 (≈ 8.73 µM)
isolate (source animal id): 262 | 8 (≈ 8.73 µM)
isolate (source animal id): 264 | 4 (≈ 4.37 µM)
isolate (source animal id): 265 | 4 (≈ 4.37 µM)
isolate (source animal id): 266 | 8 (≈ 8.73 µM)
isolate (source animal id): 267 | 4 (≈ 4.37 µM)
isolate (source animal id): 269 | 4 (≈ 4.37 µM)
isolate (source animal id): 271 | 8 (≈ 8.73 µM)
isolate (source animal id): 272 | 4 (≈ 4.37 µM)
isolate (source animal id): 274 | 8 (≈ 8.73 µM)
isolate (source animal id): 276 | 8 (≈ 8.73 µM)
isolate (source animal id): 278 | 4 (≈ 4.37 µM)
isolate (source animal id): 280 | 4 (≈ 4.37 µM)
isolate (source animal id): 281 | 8 (≈ 8.73 µM)
isolate (source animal id): 283 | 4 (≈ 4.37 µM)
isolate (source animal id): 288 | 8 (≈ 8.73 µM)
isolate (source animal id): 291 | 8 (≈ 8.73 µM)
isolate (source animal id): 292 | 8 (≈ 8.73 µM)
isolate (source animal id): 296 | 4 (≈ 4.37 µM)
isolate (source animal id): 306 | 8 (≈ 8.73 µM)
isolate (source animal id): 336 | 8 (≈ 8.73 µM)
isolate (source animal id): 337 | 8 (≈ 8.73 µM)
isolate (source animal id): 341 | 8 (≈ 8.73 µM)
